# Measurements taken from patent publication US7862838B1, “Composition and regimen for the treatment of herpes simplex and herpes zoster primarily by eliminating their pathogenetic conditions and taking into account both pathogenesis and etiology” (priority 2009, dated 2011).
# Assays:
# [1] = tested on: herpes zoster; experiment: Treatment of herpes zoster in patients, case report and general statement; format: in vivo; conditions: case 5, herpes zoster around right eye
# Excerpt: The average total period of treatment with the present invention is from about 2-4 days for herpes simplex and from about 3-7 days for herpes zoster. After the acute stage, crusts of the lesion form and fall off gradually, and then a red spot or spots remain for some more days. […] […] For quicker relief, the patient preferred to take the formula of the present invention along with acyclovir.
# [2] = tested on: herpes simplex; experiment: Treatment and prevention of herpes simplex (lips, mouth) in patients, case reports and general statements; format: in vivo; conditions: large dosage (200-500 mg), applicant's experience
# Description: The treatment regimen of the present invention comprises: Initially, administering to the patient 2 capsules (or tablets, the same hereinafter) of said formula orally every 2-4 hours. The dosage may be higher in severe cases, and may be adjusted by the prescribing health care provider. When symptoms are alleviated (see description below), usually after 1-2 days, administer 1 capsule of said formula every 4 hours until symptoms disappear. The average total period of treatment with the present invention is from about 2-4 days for herpes simplex and from about 3-7 days for herpes zoster. After the acute stage, crusts of the lesion form and fall off gradually, and then a red spot or spots remain for some more days. The formula of the present invention can be used for therapeutic prevention of herpes simplex: Whenever the patient feels a stinging and burning sensation on the potential site, or feels roughness on the tip of the tongue, they can ingest 1-2 capsules of the formula, and repeat every 2-4 hours if necessary. […] After several such preventive measures, recurrence of herpes simplex will be less and less likely, or latent for a sustained period. […] Patient stated that they had had recurrent maceration in the angles of the mouth since childhood. […]
smiles,measurement,setting,value
Nc1nc2c(ncn2COCCO)c(=O)[nH]1 [acyclovir],pain relief before treatment with the formula,[1],got some relief
CC(C)Cc1ccc(C(C)C(=O)O)cc1 (stereo not drawn) [Ibuprofen],pain relief before treatment with the formula,[1],effective only for a short time
O=C1O[C@H]([C@@H](O)CO)C(O)=C1O [vitamin C],effect on the course of herpes simplex,[2],made herpes simplex worse
